Test [1] concerns the target T1, CDK2 (Homo sapiens, UniProt P24941).
T1 construct: High-Throughput Measurement of Cellular Endogenous CDK2; endogenous in cells; host or cells: OVCAR3
As to the kind of experiment: CDK2 HTRF assay: cellular endogenous CDK2 level in OVCAR3 cells. Format: cell-based. To be noted: 24 hours compound treatment, read-out: DC50 (half maximal degradation concentration of CDK2). The gist of the method: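 Endogenous CDK2 degradation in OVCAR3 cells after 24 h compound treatment at 0.3–10,000 nM. Lysates assayed with an HTRF total-CDK2 two-antibody kit, TR-FRET 665/620 ratio normalized to DMSO. DC50 from four-parameter logistic fit, reported as potency bins.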

The target in test [2] is T1, CDK2. As to the kind of experiment: Inhibition of CDK2: phospho-Rb (S807/811) HTRF measurement in OVCAR3 cells. Format: cell-based. To be noted: 24 h compound treatment, read-out: pRb (nM), IC50 in pRB(S807/811) assay. (TR-FRET usually uses a lanthanide donor and a delayed reading to cut background.)

`Cn1nc(N2CCC(=O)NC2=O)c2ccc(N3CCN(CC4CCN(S(=O)(=O)N5CCC(Nc6ncc(C(F)(F)F)c(-c7cnn(CC(F)(F)F)c7)n6)CC5)CC4)CC3)cc21` [Example 86, 1-(1-methyl-6-(4-((1-((4-((4-(1-(2,2,2-trifluoroethyl)-1H-pyrazol-4-yl)-5-(trifluoromethyl)pyrimidin-2-yl)-amino)piperidin-1-yl)sulfonyl)-piperidin-4-yl)methyl)piperazin-1-yl)-1H-indazol-3-yl)dihydropyrimidine-2,4(1H,3H)-dione]: the DC50 at CDK2 [1] was below 100 nM. Besides, at CDK2 [2], the IC50 is below 100 nM.

Consider `O=C1CCC(NCc2cccc(S(=O)(=O)N3CCC(Nc4ncc(C(F)(F)F)c(-c5cnn(CC(F)(F)F)c5)n4)CC3)c2)C(=O)N1` (stereo not drawn) [Example 68, 3-((3-((4-((4-(1-(2,2,2-trifluoroethyl)-1H-pyrazol-4-yl)-5-(trifluoromethyl)-pyrimidin-2-yl)amino)piperidin-1-yl)-sulfonyl)benzyl)amino)piperidine-2,6-dione], for which the DC50 at CDK2 [1] was below 100 nM. In addition, on CDK2 [2], the IC50 was below 100 nM.

Take `Cn1nc(N2CCC(=O)NC2=O)c2ccc(C3CCN(Cc4cccc(S(=O)(=O)N5CC[C@H](Nc6ncc(C(F)(F)F)c(-c7cnn(CC(F)(F)F)c7)n6)[C@H](F)C5)c4)CC3)cc21` (racemic) [Example 6, Rac-1-(6-(1-(3-(((3R,4S)-3-fluoro-4-((4-(1-(2,2,2-trifluoroethyl)-1H-pyrazol-4-yl)-5-(trifluoromethyl)-pyrimidin-2-yl)amino)piperidin-1-yl)sulfonyl)-benzyl)piperidin-4-yl)-1-methyl-1H-indazol-3-yl)dihydro-pyrimidine-2,4(1H,3H)-dione]: the DC50 at CDK2 [1] was below 100 nM. For the same compound, on CDK2 [2], the IC50 is below 100 nM.

Turning to `O=C1CCC(N2C(=O)c3cc(F)c(N4CCN(Cc5cccc(S(=O)(=O)N6CC[C@H](Nc7ncc(C(F)(F)F)c(-c8cnn(CC(F)(F)F)c8)n7)[C@H](F)C6)c5)CC4)cc3C2=O)C(=O)N1` (mixture of isomers) [Example 32, Rac-2-(2,6-dioxopiperidin-3-yl)-5-fluoro-6-(4-(3-(((3R,4S)-3-fluoro-4-((4-(1-(2,2,2-trifluoroethyl)-1H-pyrazol-4-yl)-5-(trifluoromethyl)-pyrimidin-2-yl)amino)piperidin-1-yl)sulfonyl)-benzyl)piperazin-1-yl)-isoindoline-1,3-dione], on CDK2 [1], the DC50 lay within 100 to 500 nM. In addition, the IC50 at CDK2 [2] is 1000 to 10000 nM.

As to `Cn1nc(N2CCC(=O)NC2=O)c2ccc(C3CCN(CC4CCN(c5cccc(S(=O)(=O)N6CCC(Nc7ncc(C(F)(F)F)c(-c8cnn(CC(F)(F)F)c8)n7)CC6)c5)CC4)CC3)cc21` [Example 50, 1-(1-methyl-6-(1-((1-(3-((4-((4-(1-(2,2,2-trifluoroethyl)-1H-pyrazol-4-yl)-5-(trifluoromethyl)pyrimidin-2-yl)amino)-piperidin-1-yl)sulfonyl)phenyl)-piperidin-4-yl)methyl)piperidin-4-yl)-1H-indazol-3-yl)dihydropyrimidine-2,4(1H,3H)-dione], the DC50 at CDK2 [1] is below 100 nM. In addition, the IC50 at CDK2 [2] is below 100 nM.

For the compound `O=C1CCC(c2ccc(N3CCN(Cc4cccc(S(=O)(=O)N5CCC(Nc6ncc(C(F)(F)F)c(-c7cnn(CC(F)(F)F)c7)n6)CC5)c4)CC3)c(C(F)(F)F)c2)C(=O)N1` (stereo not drawn) [Example 23, 3-(4-(4-(3-((4-((4-(1-(2,2,2-trifluoro-ethyl)-1H-pyrazol-4-yl)-5-(trifluoro-methyl)pyrimidin-2-yl)amino)-piperidin-1-yl)sulfonyl)benzyl)-piperazin-1-yl)-3-(trifluoromethyl)-phenyl)piperidine-2,6-dione], the DC50 on CDK2 [1] fell in the range of 100 to 500 nM. Also, the IC50 at CDK2 [2] lay within 100 to 500 nM.

The values above are taken from US20260274853A1, “BIFUNCTIONAL COMPOUNDS CONTAINING PYRIMIDINE DERIVATIVES FOR DEGRADING CYCLIN-DEPENDENT KINASE 2 VIA UBIQUITIN PROTEASOME PATHWAY” (NIKANG THERAPEUTICS, INC., priority 2022, published 2026).
